Measurements reported in patent publication US20200010479A1, “INHIBITORS OF MICROBIAL BETA-GLUCURONIDASE ENZYMES AND USES THEREOF” (THE UNIVERSITY OF NORTH CAROLINA AT CHAPEL HILL, priority 2017, published 2020).
pIC50: −log10 of the molar value. Entries after “also recorded” stand apart in the source; their conditions may differ. Where two headings read alike, the source gives them in different places.

Experiments:
[1] = system: murine intestinal epithelium; assay: Time-course of gut damage after a single treatment in FVB mice; type: in vivo, female FVB mice
Procedure: It has been previously reported that irinotecan induces apoptosis and reduces the number of mitotic structures in the rat intestinal epithelium (Takasuna 1996). To assess whether Inh9 impacts cell proliferation in the murine intestinal epithelium, we undertook two time-course studies. Four groups of age-, weight- and litter-matched female FVB mice were treated with a single treatment of vehicle, Inh9 (1 mg/kg p.o.), irinotecan (50 mg/kg i.p.) or irinotecan and Inh9. One set of animals were euthanized after 24 hours, and a second set after 120 hours. To assess overall effects on the animals, changes in body weight, spleen mass and hematocrit were measured. In the GI tract, levels of apoptotic cells and proliferative cells were measured and epithelial samples were examined by H&E staining.
Thus, at five days, Inh9 appears to protect this measure of animal health. […] As such, the protection afforded at 24 hours by Inh9 is sufficient to improve subsequent gut epithelial outcomes in mice several days after administration.

gut microbiota [2] = assay: 16S rRNA metataxonomic analysis of luminal contents, athymic Sum149 xenograft mice; type: in vivo
Procedure: A metataxonomic analysis was performed of the luminal contents of athymic mice bearing Sum149 triple-negative breast cancer xenograft tumors by sequencing the V3-V4 region of the bacterial 16s rRNA gene. […] Gut microbial diversity is associated with animal and human health, while reduced diversity is associated with disease in both model organisms and humans (REFs). Thus, Inh9 blunts the negative effects of irinotecan on gut microbial diversity in athymic tumor xenograft mice, and is capable of increases species richness in these animals.
At the phylum level, the lumenal contents of vehicle-treated mice contained 50% Bacteroidetes, 42% Firmicutes, and 4% Proteobacteria (FIG. 22B). […] Thus, in immune-deficient mice, Inh9 markedly protects gut microbial composition in athymic mice, increasing diversity and reducing irinotecan-induced increases in Proteobacteria.

E. coli GUS [3] = molecular target: T1, E. coli GUS (Escherichia coli, UniProt P05804); type: biochemical; settings: purified L1 enzyme, in vitro
T1 sequence (P05804 whole entry): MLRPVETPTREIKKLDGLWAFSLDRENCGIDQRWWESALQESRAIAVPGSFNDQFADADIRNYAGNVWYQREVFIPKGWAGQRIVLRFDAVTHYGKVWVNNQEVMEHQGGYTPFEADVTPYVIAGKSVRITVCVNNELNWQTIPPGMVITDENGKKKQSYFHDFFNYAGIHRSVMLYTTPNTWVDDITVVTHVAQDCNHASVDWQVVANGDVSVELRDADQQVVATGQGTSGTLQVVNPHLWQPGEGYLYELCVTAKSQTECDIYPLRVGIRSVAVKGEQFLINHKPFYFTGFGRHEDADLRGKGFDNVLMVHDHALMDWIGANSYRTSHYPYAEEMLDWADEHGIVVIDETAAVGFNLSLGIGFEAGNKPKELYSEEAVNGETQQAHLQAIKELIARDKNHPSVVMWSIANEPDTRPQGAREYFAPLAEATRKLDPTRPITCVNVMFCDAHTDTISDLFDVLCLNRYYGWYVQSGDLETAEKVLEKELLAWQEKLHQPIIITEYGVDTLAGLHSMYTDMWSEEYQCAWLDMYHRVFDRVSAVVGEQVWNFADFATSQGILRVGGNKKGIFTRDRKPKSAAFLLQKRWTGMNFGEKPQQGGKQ

C3-Tag mammary tumors [4] = assay: C3-Tag genetically engineered mouse model (GEMM) of triple-negative breast cancer; settings: for number of tumors observed in the animals: between treatment groups
gut microbiota [5] = assay: Gut microbiota composition in C3Tag GEMM animals; type: in vivo, C3Tag GEMM mice; settings: for composition of the gut microbiota: mice with intact immune system
Description: Finally, we examined the effects of irinotecan and GUS inhibitor on the composition of the gut microbiota in […] triple-negative breast cancer GEMM animals. […] While the vehicle and Inh9 treatment groups appeared similar by PCoA1 analysis, both the irinotecan and IRI+Inh9 groups were similar to each other and distinct from the non-irinotecan mice (FIG. 22C). However, unlike the xenograft mice, irinotecan induces much smaller changes in the composition of the gut microbiota in these GEMM animals. […] These changes were not as dramatic as those observed with the athymic Sum149 xenograft mice presented above. […] In these GEMM animals, though, no change in Enterobacteriaceae or other Gammaproteobacteria families was observed; thus, the taxa that drive the increases in Proteobacteria are not known in these immune-competent mice.

[6] = system: Loop 2 (L2) enzyme from Bacteroides uniformis; assay: SN-38-G processing by purified GUS enzymes, with inhibitors; type: biochemical; settings: in vitro
[7] = molecular target: T2, Mini-Loop 1 (mL1) GUS from Bacteroides fragilis (Bacteroides fragilis, UniProt Q5LIC7); type: biochemical; settings: purified mL1 enzyme, in vitro
T2 construct: made in house
T2 sequence (Q5LIC7 whole entry): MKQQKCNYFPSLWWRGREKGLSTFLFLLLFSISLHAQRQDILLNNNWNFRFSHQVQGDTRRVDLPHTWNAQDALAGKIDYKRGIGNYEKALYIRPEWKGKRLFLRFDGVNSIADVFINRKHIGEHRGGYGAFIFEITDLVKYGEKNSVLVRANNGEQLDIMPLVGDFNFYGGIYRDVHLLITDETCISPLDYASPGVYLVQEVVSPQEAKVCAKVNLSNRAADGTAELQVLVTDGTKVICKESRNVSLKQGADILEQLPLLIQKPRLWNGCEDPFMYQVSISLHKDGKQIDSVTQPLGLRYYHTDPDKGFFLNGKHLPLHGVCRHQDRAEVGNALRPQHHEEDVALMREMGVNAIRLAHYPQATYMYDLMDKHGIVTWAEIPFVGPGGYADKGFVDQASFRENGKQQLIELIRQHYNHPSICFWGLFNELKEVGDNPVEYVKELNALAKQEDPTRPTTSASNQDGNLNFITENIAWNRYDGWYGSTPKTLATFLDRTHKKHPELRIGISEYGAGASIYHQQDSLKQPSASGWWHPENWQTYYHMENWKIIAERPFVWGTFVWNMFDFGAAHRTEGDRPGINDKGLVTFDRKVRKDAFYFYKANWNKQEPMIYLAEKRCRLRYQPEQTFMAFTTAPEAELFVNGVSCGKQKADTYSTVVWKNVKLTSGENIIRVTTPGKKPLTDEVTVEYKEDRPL

E. coli GUS [8] = molecular target: T1, E. coli GUS; assay: In vitro EcGUS inhibition, cleavage of PNPG by purified E. coli GUS; type: biochemical; settings: PNPG substrate, 37° C., 2 hours
Procedure: To assess GUS inhibition, cleavage of p-nitrophenyl-β-D-glucuronide (PNPG) by purified E. coli GUS in the presence of inhibitor was measured. The reaction was performed in 96-well clear-bottom plates at a volume of 50 μL. Each reaction contained 5 μL of 100 nM E. coli GUS, 5 μL of inhibitor at various concentrations, 10 μL of 250 mM HEPES and 250 mM NaCl assay buffer, and 30 μL of 1.5 mM PNPG. The reaction was initiated by addition of PNPG and incubated at 37° C. for 2 hours. End point absorbance values at 410 nm were measured using a PHERAstar Plus microplate reader. The resulting data were fit with a four-parameter logistic log function in SigmaPlot 13.0 to determine IC50 values. IC50 was defined as the concentration of inhibitor that yields a 50% reduction in product formation at equilibrium.

C. perfringens GUS = C. perfringens GUS (Clostridium perfringens, UniProt Q8XP19); type: biochemical
Chain of C. perfringens GUS (Q8XP19 whole entry, looked up): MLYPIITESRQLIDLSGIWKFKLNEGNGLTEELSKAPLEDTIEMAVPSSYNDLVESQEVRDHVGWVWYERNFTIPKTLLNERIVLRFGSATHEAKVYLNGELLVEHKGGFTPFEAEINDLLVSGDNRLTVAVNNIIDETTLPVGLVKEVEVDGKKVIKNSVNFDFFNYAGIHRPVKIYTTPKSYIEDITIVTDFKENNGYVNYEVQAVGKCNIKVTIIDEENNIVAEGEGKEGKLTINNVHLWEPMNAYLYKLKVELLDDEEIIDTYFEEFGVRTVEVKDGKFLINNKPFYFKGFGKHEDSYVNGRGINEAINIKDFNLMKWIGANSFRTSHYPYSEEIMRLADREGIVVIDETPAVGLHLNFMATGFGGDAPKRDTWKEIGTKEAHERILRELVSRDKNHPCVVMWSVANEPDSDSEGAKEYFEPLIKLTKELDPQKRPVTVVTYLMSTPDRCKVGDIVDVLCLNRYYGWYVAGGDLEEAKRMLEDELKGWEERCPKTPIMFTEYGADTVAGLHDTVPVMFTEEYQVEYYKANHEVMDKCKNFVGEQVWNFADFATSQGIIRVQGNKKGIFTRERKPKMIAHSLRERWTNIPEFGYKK

[9] = system: panel of purified GUS enzymes present in the human gut microbiota; assay: SN-38-G processing by panel of purified GUS enzymes, with inhibitors; type: biochemical; settings: comparison of inhibitors over the panel
gut microbial enzymes = assay: SN-38-G reactivation in fimo samples after treatment of FVB mice; type: in vivo; settings: for effects on SN-38-G reactivation by in fimo samples: samples collected at 120 hours; for SN-38-G processing activity in the mouse cecum (in fimo samples): single agent, samples collected after 24 hours
Procedure: The FVB mice were treated with irinotecan, the Inh9, or both irinotecan and Inh9, and it was determined how these treatments affected SN-38-G reactivation in fimo samples collected after 24 hours. […] A similar study was conducted in which samples were collected at 120 hours; at this five-day timepoint, no difference was found between the four treatment groups (data not shown).

E. eligens GUS = assay: SN-38-G processing by purified GUS enzymes, with inhibitors; type: biochemical, Eubacterium eligens; settings: purified L1 enzyme, in vitro
[10] = system: gut microbial GUS proteins; assay: SN-38-G processing by in fimo samples (enzyme mixtures from intestinal contents); type: biochemical, naïve FVB mice
Description: To examine the activity of a more relevant sample of gut microbial GUS proteins, intestinal contents from naïve FVB mice in SPF conditions were obtained. […] As used herein, the ex vivo intestinal samples examined scientifically are to be termed “in fimo” from “fimus”, used by […] and in formal Latin to mean “excrement”. […] FIGS. 14A and 14B). […] FIGS. 14A and 14B).

S. agalactiae GUS = molecular target: T3, S. agalactiae GUS (Streptococcus agalactiae serotype V, UniProt Q8E0N2); type: biochemical; settings: purified L1 enzyme, in vitro
T3 construct: made in house
T3 sequence (Q8E0N2 whole entry): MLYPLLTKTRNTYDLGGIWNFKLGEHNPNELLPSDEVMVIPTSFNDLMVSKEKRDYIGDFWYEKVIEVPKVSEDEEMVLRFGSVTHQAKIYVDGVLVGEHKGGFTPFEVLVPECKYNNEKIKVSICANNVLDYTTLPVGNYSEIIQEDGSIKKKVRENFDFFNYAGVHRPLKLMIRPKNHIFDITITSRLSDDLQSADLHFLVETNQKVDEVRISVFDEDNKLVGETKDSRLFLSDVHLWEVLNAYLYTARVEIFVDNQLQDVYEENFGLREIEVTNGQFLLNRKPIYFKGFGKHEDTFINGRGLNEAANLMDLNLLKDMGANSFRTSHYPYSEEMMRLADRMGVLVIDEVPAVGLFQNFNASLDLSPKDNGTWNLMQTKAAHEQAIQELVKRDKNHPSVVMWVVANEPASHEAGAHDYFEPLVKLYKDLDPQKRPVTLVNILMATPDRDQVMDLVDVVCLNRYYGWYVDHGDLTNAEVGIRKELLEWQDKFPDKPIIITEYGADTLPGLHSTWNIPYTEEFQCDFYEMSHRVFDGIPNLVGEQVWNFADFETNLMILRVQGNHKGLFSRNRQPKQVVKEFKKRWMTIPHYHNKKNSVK

SUM149 cells [11] = assay: SUM149 triple negative breast cancer xenograft in athymic nude mice
[12] = system: gut microbial GUS enzymes; settings: irinotecan alone; cited from earlier work
[13] = therapeutically-relevant doses; cited from earlier work
SUM149 cells [14] = settings: athymic nude, mouse, in vivo, 5 days
C3-Tag mammary tumors [15] = settings: mouse, in vivo
[16] = Inh9 co-treatment with irinotecan, 24 hours
[17] = irinotecan plus Inh9 vs irinotecan alone, 120 hours
[18] = irinotecan and Inh9 vs irinotecan alone

## C1CCc2c(c(N3CCOCC3)nc3sc4c(N5CCNCC5)nnnc4c23)C1 [Inh9]
[1]; [16]
  acute toxicity after single IRI injection: modestly reduces
  apoptotic cells per crypt: modest protection
[1]; Inh9 co-treatment with irinotecan, 120 hours
  apoptotic cells per crypt: modest protection
[1]; between treatment groups, 24 hours
  numbers of proliferative cells in the GI tract (BrdU): no change
[1]; co-treatment of irinotecan with Inh9, 120 hours
  number of proliferative cells per crypt in ileum, proximal colon and distal colon: significantly increased
[1]; [17]
  body weight or spleen mass: no changes
  hematocrit: significant increase
Gut microbiota [2]; GUS inhibitor alone
  reduction of the levels of Proteobacteria compared to vehicle: more than 10 fold
Gut microbiota [2]; IRI+Inh9
  species diversity, Chao1 richness: maintained species diversity
Gut microbiota [2]; irinotecan and Inh9
  Bacteroidetes in lumenal contents, phylum level: 42%
  Firmicutes in lumenal contents, phylum level: 43%
  Proteobacteria in lumenal contents, phylum level: 13%
Gut microbiota [2]; single agent
  Proteobacteria in lumenal contents, phylum level: 0.3%
  species diversity, Chao1 richness: uniformly maximized species richness
E. coli GUS [3]
  inhibition of SN-38-G processing (apparent kcat): efficiently reduced
C3-Tag mammary tumors [4]; IRI+Inh9
  colon tissue, H&E staining: maintained a properly assembled colonic glandular structure
  day to which the study could continue: 49 days
  primary tumor as share of body weight: below 1%
  primary tumor mass upon sacrifice: less than 100 mg
  time some animals remained diarrhea-free: 42 days
C3-Tag mammary tumors [4]; IRI+Inh9, after the first 21 days
  body weight over the course of the study: rebounded and recovered their lost weight
C3-Tag mammary tumors [4]; IRI+Inh9 vs IRI
  survival longer than IRI (Kaplan-Meier): 43%
C3-Tag mammary tumors [4]; IRI+Inh9 vs IRI alone
  number of doses of irinotecan received: significantly higher number of IRI doses; also recorded: more doses of irinotecan
C3-Tag mammary tumors [4]; IRI+Inh9 vs Veh and Inh9
  survival longer than Veh and Inh9 (Kaplan-Meier): 29%
C3-Tag mammary tumors [4]; IRI+Inh9 vs irinotecan alone
  diarrhea: significantly reduced diarrhea
C3-Tag mammary tumors [4]; Inh9 alone
  diarrhea: did not develop diarrhea
C3-Tag mammary tumors [4]; Inh9 alone (as vehicle)
  time followed until tumor size necessitated euthanasia: 70 to 80 days
C3-Tag mammary tumors [4]; Inh9 co-treatment
  extension of overall survival of irinotecan-treated mice: 14 days
C3-Tag mammary tumors [4]
  number of tumors observed in the animals: did not differ
C3-Tag mammary tumors [4]; irinotecan plus GUS inhibition
  tumor volumes measured during the study: significantly smaller tumors
C3-Tag mammary tumors [4]; single agent
  body weight over the course of the study: gained weight
  colon tissue, H&E staining: healthy colonic histology
  primary tumor as share of body weight: more than 5%
  primary tumor mass upon sacrifice: 1.5 g
  tumor volumes measured during the study: reduced tumor volumes
C3-Tag mammary tumors [4]; with Inh9
  tumor number and relative mass (FIG. 9): significant reduction
Gut microbiota [5]
  composition of the gut microbiota: does not change
[6]
  inhibition of SN-38-G processing: did not inhibit
[7]
  inhibition of SN-38-G processing: did not inhibit
E. coli GUS [8]
  pIC50: 6.42
C. perfringens GUS
  inhibition of SN-38-G processing (apparent kcat): efficiently reduced
[9]
  inhibiting GUS-mediated reactivation of SN-38-G in vitro: superior to Inh1
Gut microbial enzymes; Inh9 plus irinotecan compared to irinotecan alone, 24 hours
  level of SN-38-G reactivation by in fimo samples: significantly reduced
Gut microbial enzymes
  effects on SN-38-G reactivation by in fimo samples: no longer detected
  SN-38-G processing activity in the mouse cecum (in fimo samples): did not alter
E. eligens GUS
  inhibition of SN-38-G processing (apparent kcat): efficiently reduced
[10]; Inh9 at 50 and 100 μM
  SN-38-G reactivation by cecal contents: dose-dependent; also recorded: significantly reduce
[10]; cecum, proximal and distal colon samples, comparison of inhibitors
  reducing SN-38-G processing in fimo: superior to Inh1
S. agalactiae GUS
  inhibition of SN-38-G processing (apparent kcat): efficiently reduced
SUM149 cells [11]; Inh9 with irinotecan
  post-sacrifice colon histological examination: marked protection
SUM149 cells [11]; [18]
  diarrhea: significantly less diarrhea
  irinotecan-induced weight loss / body weight: significant improvement; also recorded: significantly protected
  survival: slightly improved overall survival; also recorded: trended toward living longer
SUM149 cells [11]; irinotecan-plus-Inh9
  terminal tumor masses: significantly reduced
SUM149 cells [11]; irinotecan-plus-Inh9 compared to vehicle and Inh9 cohorts
  tumor volumes: significantly reduced

## CCc1c2c(nc3ccc(OC(=O)N4CCC(N5CCCCC5)CC4)cc13)-c1cc3c(c(=O)n1C2)COC(=O)[C@]3(O)CC [irinotecan, (S)-4,11-diethyl-3,4,12,14-tetrahydro-4-hydroxy-3,14-dioxo1H-pyrano[3′,4′:6,7]-indolizino[1,2-b]quinolin-9-yl-[1,4′bipiperidine]-1′-carboxylate, reference compound]
[1]; irinotecan
  time to apoptotic crypt damage in the murine small intestine: ≤ 24 h
[1]; single IRI injection, five days
  spleen mass: unchanged
[1]; single IRI injection, over five days
  body mass: modest body mass reduction
[1]; single agent compared to vehicle or Inh9, 120 hours
  proliferative (BrdU+) cells per crypt in ileum, proximal colon and distal colon: significantly decreased
Gut microbiota [2]; irinotecan, athymic xenograft mice
  increase in the levels of Proteobacteria: ten-fold increase
Gut microbiota [2]; single agent
  Bacteroidetes in lumenal contents, phylum level: 35%
  Firmicutes in lumenal contents, phylum level: 16%
  Proteobacteria in lumenal contents, phylum level: 46%
  species diversity, Chao1 richness: significant drop
C3-Tag mammary tumors [4]
  number of tumors observed in the animals: did not differ
C3-Tag mammary tumors [4]; irinotecan alone, after the initiation of therapy
  time until euthanasia was required for all animals: 28 days
C3-Tag mammary tumors [4]; single agent
  primary tumor as share of body weight: 3%
  primary tumor mass upon sacrifice: ~1 g
Gut microbiota [5]; irinotecan alone or in combination with GUS inhibitor vs no irinotecan
  Proteobacteria and Gammaproteobacteria, Verrucomicrobia and Verrocumicrobiae levels: significant increases
Gut microbiota [5]
  composition of the gut microbiota: sole driver of changes
[12]
  time to lethal intestinal toxicity: ≤ 10 days
[13]
  patients who develop diarrhea of all grades: 88%
  patients with life-threatening grade 3-4 diarrhea: 30%
SUM149 cells [14]
  mice that developed late-onset, delayed diarrhea: 50%
Gut microbial enzymes
  effects on SN-38-G reactivation by in fimo samples: no longer detected
  SN-38-G processing activity in the mouse cecum (in fimo samples): significantly increased
C3-Tag mammary tumors [15]; female, C3-Tag (strain of origin FVB/N)
  time within which all animals developed diarrhea: ≤ 14 days
C3-Tag mammary tumors [15]
  body weight over the course of the study: consistently lost weight
  colon tissue, H&E staining: almost completely destroyed glandular structure
SUM149 cells [11]; both irinotecan treatment groups
  time to early-onset diarrhea: ≤ 12 h
SUM149 cells [11]; irinotecan alone, following the first treatment
  time until the entire cohort required euthanasia: 10 days
SUM149 cells [11]; single agent
  post-sacrifice colon histological examination: dramatic irinotecan-induced epithelial damage
  terminal tumor masses: significantly reduced
